Test results taken from the supplement of paper PMC10307832.

Legend:
Test in all cases: relative viability (nuclei count vs DMSO), 5 days (fraction); higher = more cells survive
[1] = compound: C1/C(=C\C2=CC=CS2)/C(=O)/C(=C/C3=CC=CS3)/C1 + CC(C)C[C@H](NC(=O)[C@H](Cc1ccccc1)NC(=O)c1cnccn1)B(O)O [Bortezomib] (partner 0.002 µM)
Procedure, shortened: (§1)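 Relative viability was taken as the ratio of nuclei in treated wells to nuclei in vehicle wells. Lung cancer cell lines in 1536-well plates received compounds by pin tool one day after seeding, either one drug alone or a fixed anchor-drug dose plus five library-drug doses (not always all listed) in √10 steps. Nuclei were counted on 4× images after 5 days of treatment, and values are medians of duplicate plates.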

[2] = compound: C[C@]12O[C@H](C[C@]1(O)CO)n1c3ccccc3c3c4c(c5c6ccccc6n2c5c31)CNC4=O [Lestaurtinib] + Nc1nc2[nH]cc(CCc3ccc(C(=O)N[C@@H](CCC(=O)O)C(=O)O)cc3)c2c(=O)[nH]1 [Pemetrexed] (partner 0.2 µM)
Procedure, shortened: as §1

[3] = compound: C1/C(=C\C2=CC=CS2)/C(=O)/C(=C/C3=CC=CS3)/C1 + C[C@]1(O)C[C@@H](c2nc(-c3ccc4ccc(-c5ccccc5)nc4c3)c3c(N)nccn32)C1 [Linsitinib] (partner 1 µM)
Procedure, shortened: as §1

[4] = compound: C1=CC(=CC=C1C2=CC(=C(S2)NC(=O)N)C(=O)N)F [TPCA-1] + CC(=O)c1c(C)c2cnc(Nc3ccc(N4CCNCC4)cn3)nc2n(C2CCCC2)c1=O [Palbociclib] (partner 0.5 µM)
Procedure, shortened: as §1

Cell Line	relative viability ([1]; first compound 0.2 µM)	relative viability ([1]; first compound 0.6325 µM)	relative viability ([1]; first compound 2 µM)	relative viability ([1]; first compound 6.325 µM)	relative viability ([1]; first compound 20 µM)	relative viability ([2]; first compound 0.005 µM)	relative viability ([2]; first compound 0.01581 µM)	relative viability ([2]; first compound 0.05 µM)	relative viability ([2]; first compound 0.1581 µM)	relative viability ([2]; first compound 0.5 µM)	relative viability ([3]; first compound 0.2 µM)	relative viability ([3]; first compound 0.6325 µM)	relative viability ([3]; first compound 2 µM)	relative viability ([3]; first compound 6.325 µM)	relative viability ([3]; first compound 20 µM)	relative viability ([4]; first compound 0.04 µM)	relative viability ([4]; first compound 0.1265 µM)	relative viability ([4]; first compound 0.4 µM)	relative viability ([4]; first compound 1.265 µM)	relative viability ([4]; first compound 4 µM)
NCI-H2009	1.04	0.939	1.08	0.736	0.991	1.07	1.06	0.998	0.934	0.835	1.28	1.2	1.15	0.712	1.13	0.254	0.204	0.25	0.174	0.19
NCI-H1651	0.876	0.995	0.916	0.914	0.925	0.534	0.722	0.571	0.615	0.388	1.11	1.06	0.92	–	1.05	0.54	0.493	0.51	0.535	0.505
HARA	1.23	1.1	1.08	0.89	1.07	0.265	0.246	0.203	0.171	0.196	0.968	1.06	0.898	0.242	0.902	0.249	0.298	0.282	0.27	0.176
NCI-H2347	0.847	1	1.04	0.831	1.04	0.443	0.43	0.432	0.44	0.404	0.918	0.953	0.922	0.891	0.938	0.457	0.462	0.427	0.424	0.461
201T	1.17	1.08	1.13	1.04	1.08	0.34	0.342	0.317	0.279	0.251	1.08	0.989	1.16	0.9	0.996	0.376	0.362	0.385	0.386	0.363
PC-14	0.904	0.763	0.837	0.742	0.98	0.153	0.131	0.154	0.154	0.0792	0.96	0.919	0.922	0.829	0.981	0.502	0.57	0.557	0.518	0.4
NCI-H1792	0.968	0.957	1.06	–	0.832	0.748	1.15	0.257	0.371	0.31	0.523	0.618	0.617	–	0.451	0.707	0.562	0.593	0.574	0.496
COR-L23	1.12	0.983	0.978	0.946	1.01	0.209	0.214	0.195	0.194	0.202	0.981	0.921	0.875	0.838	0.887	0.316	0.289	0.272	0.206	0.169
HOP-62	0.619	0.765	0.94	0.979	0.634	0.269	0.322	0.309	0.339	0.22	1.09	0.879	0.853	0.982	0.815	0.483	0.458	0.497	0.418	0.466
NCI-H1915	0.982	0.97	1.02	0.908	0.895	0.589	0.432	0.458	0.447	0.205	1.14	1.08	1.09	1.04	1.1	0.568	0.475	0.515	0.516	0.465
BEN	0.719	1.04	1.01	0.68	0.719	0.782	0.841	0.663	0.555	0.358	0.96	0.923	0.877	0.841	0.757	0.474	0.468	0.531	0.577	0.422
NCI-H1437	0.544	0.503	0.479	0.495	0.479	0.274	0.305	0.293	0.23	0.238	1.1	1.04	0.993	0.984	0.986	0.302	0.288	0.3	0.35	0.3
EMC-BAC-2	1.16	1.08	1.19	0.967	1.02	0.452	0.429	0.488	0.352	0.308	0.811	0.787	0.84	0.761	0.792	0.513	0.519	0.524	0.413	0.485
NCI-H647	0.877	1.09	1.11	0.627	0.912	0.187	0.162	0.183	0.119	0.064	1.27	1.36	1.03	0.969	1.17	0.47	0.4	0.342	0.38	0.188
LXF-289	1.01	0.988	0.971	0.83	0.991	0.872	0.931	0.631	0.771	0.21	0.981	1.03	0.922	0.912	0.984	0.623	0.605	0.627	0.643	0.514
LOU-NH91	0.472	0.528	0.459	0.327	0.493	0.413	0.509	0.448	0.583	0.338	1	0.898	1.03	0.806	1.02	0.539	0.51	0.471	0.524	0.532

Cell Line	relative viability ([1]; first compound 0.2 µM)	relative viability ([1]; first compound 0.6325 µM)	relative viability ([1]; first compound 2 µM)	relative viability ([1]; first compound 6.325 µM)	relative viability ([1]; first compound 20 µM)	relative viability ([2]; first compound 0.005 µM)	relative viability ([2]; first compound 0.01581 µM)	relative viability ([2]; first compound 0.05 µM)	relative viability ([2]; first compound 0.1581 µM)	relative viability ([2]; first compound 0.5 µM)	relative viability ([3]; first compound 0.2 µM)	relative viability ([3]; first compound 0.6325 µM)	relative viability ([3]; first compound 2 µM)	relative viability ([3]; first compound 6.325 µM)	relative viability ([3]; first compound 20 µM)	relative viability ([4]; first compound 0.04 µM)	relative viability ([4]; first compound 0.1265 µM)	relative viability ([4]; first compound 0.4 µM)	relative viability ([4]; first compound 1.265 µM)	relative viability ([4]; first compound 4 µM)
NCI-H23	1.17	1.05	0.953	0.983	1.01	0.622	0.787	0.503	0.449	0.292	0.584	0.51	0.67	0.437	0.643	0.539	0.527	0.51	0.431	0.435
NCI-H1993	1.07	0.946	1.36	0.915	1.19	0.581	0.657	0.644	0.411	0.497	0.683	0.694	0.672	0.679	0.792	0.726	0.531	0.645	0.717	0.534
HCC-827	1.1	1.07	0.993	0.84	1.05	0.234	0.234	0.26	0.28	0.196	1.05	0.953	0.923	0.929	0.903	0.487	0.407	0.521	0.413	0.278
NCI-H650	0.974	0.849	0.961	1.02	0.768	0.938	1.01	0.557	0.573	0.33	0.96	0.86	0.896	0.903	0.803	0.347	0.323	0.343	0.266	0.279
CAL-12T	1.1	1.09	1.18	0.976	1.04	1.13	1.11	1.17	0.834	0.635	0.837	0.964	0.764	0.744	0.92	0.585	0.507	0.445	0.416	0.172
NCI-H838	0.864	0.787	0.912	0.655	0.782	0.263	0.272	0.231	0.197	0.126	1.12	0.979	0.955	0.8	0.94	0.225	0.193	0.222	0.194	0.199
NCI-H2228	1.11	0.987	1.44	0.808	0.86	0.381	0.383	0.299	0.147	0.148	0.764	0.628	1.16	0.563	0.631	0.865	0.593	0.801	0.543	0.308
RERF-LC-KJ	1.07	1.14	1.04	0.912	1.13	0.482	0.496	0.417	0.455	0.351	0.903	0.922	0.801	0.812	0.794	1.12	1.04	1.04	1.03	0.892
NCI-H661	0.857	0.716	0.858	0.738	0.732	0.972	1.03	0.836	0.702	0.523	0.692	0.465	0.508	0.559	0.48	0.413	0.397	0.411	0.399	0.378
HCC-366	1.03	1.09	1.07	0.893	1.07	0.158	0.168	0.157	0.163	0.104	0.701	0.574	0.647	0.467	0.6	–	0.346	0.397	0.328	0.192
SK-LU-1	1.33	1.07	1.68	1.13	1.28	1	0.802	0.476	0.457	0.284	1.04	1.08	1.16	0.984	1.24	0.363	0.367	0.368	0.347	0.235
HCC-44	0.911	0.851	0.844	0.801	0.923	0.635	0.685	0.491	0.648	0.377	0.633	0.748	0.693	0.592	0.655	0.987	0.902	0.995	0.995	1.03
A-427	1.07	1.08	0.961	0.993	0.981	0.865	1.14	0.925	0.503	0.275	1.14	1.12	1.11	1.06	1.15	0.555	0.507	0.545	0.561	0.553
SW 1573	0.985	1	1.09	0.834	0.949	1.03	0.86	0.666	0.303	0.119	0.765	0.839	0.959	0.744	0.829	0.429	0.396	0.396	0.395	0.407
NCI-H322M	1.17	1.31	1.3	1.19	1.12	0.599	0.606	–	0.592	0.445	0.995	0.909	1.11	0.81	0.845	0.469	0.469	0.488	0.523	0.403
NCI-H2023	0.964	0.942	1.21	0.869	0.868	0.292	0.285	0.201	0.153	0.0898	0.794	0.684	0.668	0.731	0.679	0.366	0.394	0.444	0.37	0.165
